Experimental data published in patent US6593339B1, “Use of compounds as antibacterial agents” (AstraZeneca AB, priority 1999, dated 2003).

Test system: Helicobacter pylori Reference Strain NCTC 11 637
Experiment: Agar well diffusion test: inhibition zones around wells on blood agar plates
Type: cell-based
Conditions: 30 μl per 3 mm well, incubated four days
Experimental: Strain: Helicobacter pylori Reference Strain NCTC 11 637 (National Type Culture Collection, from Smittskyddsinstitutet in Solna, Sweden), an Antibiotic Sensitive Reference Strain
Helicobacter pylori was grown on blood agar plates, having a diameter of 90 mm. for three days under microaerophilic conditions at 37° C. The bacteria were suspended in PBS (phosphate buffer saline) to approximately 10^8 cfu/ml. Approximately 2 ml of the suspension was added to one agar plate and spread even on the surface of the agar. Overflow was removed with a syringe. Wells, like small holes, 3 mm in diameter, were made in the agarplate by removing agar. Three wells per plate were made. […] 30 μl of the solution was added to the wells. The plates were incubated for four days before they were checked for inhibition zones around the wells.

Structure (SMILES): C[S+](C)[O-] [DMSO, Di-methyl-sulphate-oxide]
- inhibition zone around each well (solution 20 μg/ml): No inhibition zones

Structure (SMILES): COc1ccc2cc([C@H](C)C(=O)O)ccc2c1 [Naproxen]
- zone of inhibition at 10000 µg/mL (Helicobacter pylori, NCTC11, 96 h, stock solution 10000 μg/ml, read-out: inhibition zone around each well): 16.6 mm
- inhibition zone around each well (stock solution 100 μg/ml): No inhibition zones
- inhibition zone around each well (stock solution 1000 μg/ml): No inhibition zones

Structure (SMILES): CC(=O)N[C@H](C(=O)O)C(C)(C)SN=O [SNAP, S-nitroso-N-acetyl-penicillamin]
- inhibition zone around each well (stock solution 10000 μg/ml): No inhibition zones

Structure (SMILES): COc1ccc2cc(C(C)C(=O)OCCCCO[N+](=O)[O-])ccc2c1 (stereo not drawn) [formula Ia]
- zone of inhibition at 100 µg/mL (Helicobacter pylori, NCTC11, 96 h, stock solution 100 μg/ml, read-out: inhibition zone around each well): 10.4 mm
- zone of inhibition at 1000 µg/mL (Helicobacter pylori, NCTC11, 96 h, stock solution 1000 μg/ml, read-out: inhibition zone around each well): 13 mm
- inhibition zone around each well (stock solution 10000 μg/ml): large
- inhibition zone around each well (stock solution 100000 μg/ml): large
